Test results published in patent publication US7033829B2, “Method to inhibit cell growth using oligonucleotides” (Trustees of Boston University, priority 2000, dated 2006).
Oligonucleotides are written 5' to 3', each unit as a sugar letter and its base; * is a phosphorothioate linkage, no mark a phosphodiester; rarer units and linkages stand in square brackets, end groups in braces. Plain capitals give the bases only. d = 2'-deoxy (DNA); {P} = phosphate

Tests used:
[1] = system: normal (control) fibroblasts; experiment: FACS analysis of normal (control) fibroblasts; assay type: cell-based, human; settings: 40 μM
Protocol: Fibroblasts were obtained from an NBS (Nijmegen breakage syndrome) patient, in which p95/Nbs1 was below the level of detection. Preconfluent cultures or normal (control) fibroblasts and NBS fibroblasts were treated with 40 μM of the oligonucleotides and collected after 48 hours for FACS analysis (FIGS. 34A–34H). The averages and standard deviations were calculated from triplicate cultures of each condition. FACS profiles from one representative experiment of three are shown.

telomere length = experiment: Mean telomere length in fibroblasts; assay type: cell-based, human; settings: for MTL values: 40 μM, 5 days (diluent 10.59)
Protocol: Cells were plated at a density of 180,000 cells/ml in RPMI 1640 medium supplemented with 3% FBS. Cells were treated with 40 μM of either of the oligonucleotides for 72 hours. Cells were then collected, washed and fixed for 30 minutes in 4% paraformaldehyde and then permeabilized with 0.1% Triton X-100 for 2 minutes. The TUNEL assay was carried out with components and instructions of the In Situ Cell Death Detection Kit using fluorescein-labeled dUTP from Boehringer Mannheim. TUNEL-positive cells were detected by FACS analysis and confocal microscopy. Cellular Uptake of Oligonucleotides For confocal analysis, Jurkat cells were plated on Permanox chamber slides (Lab-Tek, Naperville, Ill.) and treated for 4 hours with fluorescein phosphoramidite (FAM)-labeled oligonucleotides (Research Genetics, Inc., Huntsville, Ala.). Adherent cells were fixed in 4% paraformaldehyde in PBS, stained with propidium iodide (PI) to identify nuclei, mounted with Slowfade reagent (Molecular Probes, Eugene, Oreg.), covered with a coverslip and stored at 4° C. in the dark. Uptake of the oligonucleotides was assessed in 5–10 μm sections with a Carl Zeiss LSM 510 confocal laser microscope. Computer images assign green to the FAM-oligonucleotides, red to PI, and yellow to co-localization of the signals. FACS analysis was performed on Jurkat cells identically treated with the FAM-oligonucleotides for 4 hours, then fixed in 0.5 ml of 4% paraformaldehyde overnight at 4° C. Fluorescence was measured on the FL-1 channel. Western Blot Analysis and Antibodies Western blot analysis was performed as previously described [Eller, M. S., et al., (1996), Proc Natl Acad Sci USA 93, 1087–1092]. Antibody Ab-6 (DO-1 clone, Oncogene Research Products, Cambridge, Mass.) detected p53; antibody KH95 (Santa Cruz Biotechnology, Inc., Santa Cruz, Calif.) detected E2F1; antibody Ab-4 (Oncogene Research products) detected p73. Phospho-p53 (serine 15) was detected using the #9284 polyclonal antibody and phospho-p95/Nbs1 (serine 343) was detected by a phospho-p95/Nbs1-specific polyclonal antibody, both antibodies from Cell Signaling Technology (Beverly, Mass.). p95/Nbs1 antibody (#NB-100-143, Novus Biologicals, Littleton, Colo.) and an actin antibody (I-19, Santa Cruz Biotechnology, Santa Cruz, Calif.) were also used. […] After the indicated times, total protein was collected and analyzed by 8% PAGE and western blot using a polyclonal antibody to p95/Nbs1 (#NB-100-143, Novus Biologicals, Littleton, Colo.). […] Telomere length was determined essentially as described by van Steensel and de Lange (van Steensel, B. and T. de Lange. 1997, Nature 385: 740–743) using the Telo TAGGG Telomere Length Assay from Roche Molecular Biochemicals (Indianapolis, Ind.) and the protocol supplied by the manufacturer. […]

Row | Substance | S phase growth arrest [1] | MTL values (telomere length) [kilobases] | increase in MTL (telomere length; 5-day experiment)
1 | pCTAACCCTAAC (DNA, 5' {P}, backbone not given here) [SEQ ID NO: 9, reference compound] | unaffected | 10.45 | 
2 | pGATCGATCGAT (DNA {P}-dGdAdTdCdGdAdTdCdGdAdT) [SEQ ID NO: 10, reference compound] | unaffected | 10.22 | 
3 | pGTTAGGGTTAG (DNA {P}-dGdTdTdAdGdGdGdTdTdAdG) [SEQ ID NO: 5] | exhibit an S phase growth arrest within 24 hours | 12.25 | approximately 20%
